Test results as given in PubChem BioAssay AID330 (DTP/NCI, 2004).
“And” between values parts separate entries of the source, which are not always exact repeats. Equal values may be shown once. Inconclusive results and toxic doses are left out. Rule for the calls: active = survival T/C of 150% or more; inactive = T/C below 125% in these data.

Tested on: P388 leukemia ip, CD2F1 mice, survival T/C
Test: NCI In Vivo Anticancer Drug Screen. Data for tumor model P388 Leukemia (intraperitoneal) in CD2F1 (CDF1) mice
Details: endpoint: median survival time, higher = longer survival
Summary of the method: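 Mice carrying the transplanted tumor received test compound or vehicle. Survival was recorded in each group, and the value is the treated-group measurement divided by that of the vehicle-treated control group.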

[1] = dose: 50.0 mg/kg/injection, schedule: Q01DX005 (ip), vehicle: Klucel (hydroxypropylcellulose) (HPC)
[2] = dose: 100.0 mg/kg/injection, schedule: Q01DX005 (ip), vehicle: Klucel (hydroxypropylcellulose) (HPC)
[3] = dose: 100.0 mg/kg/injection, schedule: Q01DX001 (ip), vehicle: Klucel (hydroxypropylcellulose) (HPC)
[4] = dose: 200.0 mg/kg/injection, schedule: Q01DX001 (ip), vehicle: Klucel (hydroxypropylcellulose) (HPC)
[5] = dose: 400.0 mg/kg/injection, schedule: Q01DX001 (ip), vehicle: Klucel (hydroxypropylcellulose) (HPC)
[6] = dose: 50.0 mg/kg/injection, schedule: Q01DX005 (ip), vehicle: saline with Tween-80
[7] = dose: 100.0 mg/kg/injection, schedule: Q01DX005 (ip), vehicle: saline with Tween-80
[8] = dose: 200.0 mg/kg/injection, schedule: Q01DX005 (ip), vehicle: saline with Tween-80
[9] = dose: 50.0 mg/kg/injection, schedule: Q01DX009 (ip), vehicle: Klucel (hydroxypropylcellulose) (HPC)
[10] = dose: 100.0 mg/kg/injection, schedule: Q01DX009 (ip), vehicle: Klucel (hydroxypropylcellulose) (HPC)
[11] = dose: 200.0 mg/kg/injection, schedule: Q01DX009 (ip), vehicle: Klucel (hydroxypropylcellulose) (HPC)
[12] = dose: 100.0 mg/kg/injection, schedule: Q01DX009 (ip), vehicle: saline
[13] = dose: 200.0 mg/kg/injection, schedule: Q01DX009 (ip), vehicle: saline
[14] = dose: 60.0 mg/kg/injection, schedule: Q01DX005 (ip), vehicle: saline
[15] = dose: 120.0 mg/kg/injection, schedule: Q01DX005 (ip), vehicle: saline

Measured: T/C

CCN(CC)CCOC(=O)C(C)c1cccc2c(=O)cc(-c3ccccc3)oc12 (configuration not stated)
inactive: [1] 90 % of control | [2] 101 % of control | dose: 200.0 mg/kg/injection, schedule: Q01DX005 (ip), vehicle: Klucel (hydroxypropylcellulose) (HPC) 101 % of control

NC(=S)N/N=C/c1c(Cl)nc2sccn12
inactive: [3] 92 % of control | [4] 97 % of control | [5] 97 % of control

CC1(C)OC(C(F)(F)F)(C(F)(F)F)c2cc(C(C)(C)C)cc(C(O)(C(F)(F)F)C(F)(F)F)c2S1
inactive: dose: 30.0 mg/kg/injection, schedule: Q01DX005 (ip), vehicle: saline with Tween-80 120 % of control | [6] 106 % of control | dose: 60.0 mg/kg/injection, schedule: Q01DX005 (ip), vehicle: saline with Tween-80 113 % of control | [7] 120 % of control | dose: 120.0 mg/kg/injection, schedule: Q01DX005 (ip), vehicle: saline with Tween-80 112 % of control | [8] 115 % of control

OCc1nc2ccccc2[nH]1
inactive: dose: 25.0 mg/kg/injection, schedule: Q01DX009 (ip), vehicle: Klucel (hydroxypropylcellulose) (HPC) 96 % of control | [9] 97 % of control | [10] 96 % of control | [11] 114 % of control

CC(=O)[C@H]1[C@H](O)C[C@H]2[C@@H]3CCC4=CC(=O)CC[C@]4(C)[C@@]3(F)[C@@H](O)C[C@@]21C
inactive: [12] 120 % of control | [13] 95 % of control

Nc1cccc(=O)[nH]1
inactive: [12] 95 % of control | [13] 109 % of control | dose: 400.0 mg/kg/injection, schedule: Q01DX009 (ip), vehicle: saline 113 % of control and 123 % of control

COC(=O)Nc1ccc(C2OCCN2C(=O)Nc2ccc(Cl)cc2)cc1 (configuration not stated)
inactive: [6] 87 % of control | [7] 88 % of control

CN1C(=O)c2ccccc2NC12CCN(Cc1ccccc1)CC2
inactive: dose: 25.0 mg/kg/injection, schedule: Q01DX005 (ip), vehicle: Klucel (hydroxypropylcellulose) (HPC) 103 % of control | [1] 95 % of control | [2] 97 % of control

[O-]/[N+](=N/O)C(c1ccccc1)c1ccccc1
inactive: dose: 3.0 mg/kg/injection, schedule: Q01DX005 (ip), vehicle: Klucel + Tween-80 104 % of control | dose: 6.0 mg/kg/injection, schedule: Q01DX005 (ip), vehicle: Klucel + Tween-80 98 % of control | dose: 12.0 mg/kg/injection, schedule: Q01DX005 (ip), vehicle: Klucel + Tween-80 100 % of control | dose: 24.0 mg/kg/injection, schedule: Q01DX005 (ip), vehicle: Klucel + Tween-80 97 % of control

CN1N=Nc2ccccc2C1(O)c1ccc(F)cc1 (configuration not stated)
inactive: [6] 104 % of control | [7] 104 % of control | [8] 107 % of control

CO/C=C1\OC(=O)C=C1OC
inactive: [6] 101 % of control | [7] 108 % of control | [8] 114 % of control

COC(=O)/C(=C/c1c[nH]c2ccccc12)NC=O
inactive: dose: 60.0 mg/kg/injection, schedule: Q01DX005 (ip), vehicle: Klucel (hydroxypropylcellulose) (HPC) 97 % of control | dose: 120.0 mg/kg/injection, schedule: Q01DX005 (ip), vehicle: Klucel (hydroxypropylcellulose) (HPC) 97 % of control | dose: 240.0 mg/kg/injection, schedule: Q01DX005 (ip), vehicle: Klucel (hydroxypropylcellulose) (HPC) 92 % of control

Nc1nc(N)c2c(Cl)c(CNc3ccc(Cl)c(Cl)c3)ccc2n1
inactive: dose: 0.18 mg/kg/injection, schedule: Q01DX009 (ip), vehicle: saline with Tween-80 97 % of control | dose: 0.37 mg/kg/injection, schedule: Q01DX009 (ip), vehicle: saline with Tween-80 102 % of control | dose: 0.75 mg/kg/injection, schedule: Q01DX009 (ip), vehicle: saline with Tween-80 99 % of control | dose: 1.5 mg/kg/injection, schedule: Q01DX009 (ip), vehicle: saline with Tween-80 99 % of control

CCCN(CCC)CCCOC(=O)c1ccc2oc3ccc(C(=O)OCCCN(CCC)CCC)cc3c2c1
inactive: dose: 50.0 mg/kg/injection, schedule: Q01DX009 (ip), vehicle: saline 103 % of control | [12] 106 % of control

Cc1cnc(C)[nH]1
inactive: [6] 102 % of control | [7] 86 % of control | [8] 102 % of control

O=C1CC(c2ccc(Cl)cc2)C(c2ccc(Cl)cc2)C1C(=O)OC1CCCCC1 (configuration not stated)
inactive: dose: 1.56 mg/kg/injection, schedule: Q01DX001 (ip), vehicle: Klucel (hydroxypropylcellulose) (HPC) 110 % of control | dose: 3.13 mg/kg/injection, schedule: Q01DX001 (ip), vehicle: Klucel (hydroxypropylcellulose) (HPC) 107 % of control | dose: 6.25 mg/kg/injection, schedule: Q01DX001 (ip), vehicle: Klucel (hydroxypropylcellulose) (HPC) 107 % of control and 89 % of control

NC(=O)c1nnn(-c2ccccc2)n1
inactive: dose: 100.0 mg/kg/injection, schedule: Q04DX003 (ip), vehicle: Klucel (hydroxypropylcellulose) (HPC) 105 % of control | dose: 200.0 mg/kg/injection, schedule: Q04DX003 (ip), vehicle: Klucel (hydroxypropylcellulose) (HPC) 99 % of control | dose: 400.0 mg/kg/injection, schedule: Q04DX003 (ip), vehicle: Klucel (hydroxypropylcellulose) (HPC) 89 % of control

CC(C)=CCC(C)/C(=N\[N+](C)(C)C)c1ccccc1 (configuration not stated)
inactive: dose: 6.25 mg/kg/injection, schedule: Q01DX009 (ip), vehicle: saline 94 % of control | dose: 12.5 mg/kg/injection, schedule: Q01DX009 (ip), vehicle: saline 99 % of control | dose: 25.0 mg/kg/injection, schedule: Q01DX009 (ip), vehicle: saline 101 % of control and 116 % of control

C=C1C(=O)OC2(C)CCCCC12 (configuration not stated)
inactive: [9] 92 % of control | [10] 100 % of control | [11] 93 % of control

Cc1c(-c2nc(N)nc(C3CC3)c2C)nc(N)nc1C1CC1
inactive: [14] 102 % of control | [15] 100 % of control

CC(=O)OCC(=O)[C@@]1(O)CC[C@H]2[C@@H]3CCC4=CC(=O)[C@H](C)C[C@]4(C)[C@H]3[C@@H](O)C[C@@]21C
inactive: dose: 100.0 mg/kg/injection, schedule: Q04DX003 (ip), vehicle: other 100 % of control | dose: 200.0 mg/kg/injection, schedule: Q04DX003 (ip), vehicle: other 100 % of control | dose: 400.0 mg/kg/injection, schedule: Q04DX003 (ip), vehicle: other 115 % of control

CC1CCCC(C2CC3CCCCC3C(N)[N-]2)[N-]1.O=[N+]([O-])O.O=[N+]([O-])O.[Cu+2] (configuration not stated)
inactive: dose: 6.25 mg/kg/injection, schedule: Q04DX002 (ip), vehicle: suspension in saline 93 % of control | dose: 12.5 mg/kg/injection, schedule: Q04DX002 (ip), vehicle: suspension in saline 110 % of control

Cc1ccn2cc(CC(=O)O)nc2c1
inactive: [3] 104 % of control | [4] 100 % of control | [5] 96 % of control

COc1ccc(-c2oc(=O)cc(-c3ccccc3)c2-c2ccccc2)cc1
inactive: [6] 112 % of control | [7] 93 % of control | [8] 87 % of control

O=C(N[C@@H](CO)[C@H]1CC(Br)=NO1)C(Cl)(Cl)Cl
inactive: dose: 12.5 mg/kg/injection, schedule: Q01DX005 (ip), vehicle: distilled water + Tween-80 100 % of control | dose: 25.0 mg/kg/injection, schedule: Q01DX005 (ip), vehicle: distilled water + Tween-80 102 % of control | dose: 50.0 mg/kg/injection, schedule: Q01DX005 (ip), vehicle: distilled water + Tween-80 105 % of control | dose: 100.0 mg/kg/injection, schedule: Q01DX005 (ip), vehicle: distilled water + Tween-80 107 % of control

FC(F)(F)SN1CN(SC(F)(F)F)CN(SC(F)(F)F)CN(SC(F)(F)F)C1
inactive: [14] 103 % of control and 96 % of control | [15] 96 % of control | dose: 240.0 mg/kg/injection, schedule: Q01DX005 (ip), vehicle: saline 100 % of control

CCOC(=O)C(C)(C(=O)c1ccccc1)C(=O)C(C)(C)C (configuration not stated)
inactive: dose: 75.0 mg/kg/injection, schedule: Q01DX009 (ip), vehicle: saline with Tween-80 107 % of control | dose: 150.0 mg/kg/injection, schedule: Q01DX009 (ip), vehicle: saline with Tween-80 103 % of control | dose: 300.0 mg/kg/injection, schedule: Q01DX009 (ip), vehicle: saline with Tween-80 115 % of control

CC1(Br)CN([C@@H](C(=O)O)c2ccccc2)C1=O (some centres not stated)
inactive: dose: 50.0 mg/kg/injection, schedule: Q04DX002 (ip), vehicle: saline with Tween-80 102 % of control | dose: 100.0 mg/kg/injection, schedule: Q04DX002 (ip), vehicle: saline with Tween-80 96 % of control | dose: 200.0 mg/kg/injection, schedule: Q04DX002 (ip), vehicle: saline with Tween-80 93 % of control | dose: 400.0 mg/kg/injection, schedule: Q04DX002 (ip), vehicle: saline with Tween-80 102 % of control
